From a compilation of properties of binary mixtures (doi:10.1016/j.molliq.2011.09.019)

Assay: xn = mol fraction of the nth substance listed
Conditions: 101 kPa

Compound: CS(C)=O + CC(=O)[O-].CC[NH2+]CC
- speed of sound (298.15 K, x1 = 1): 1496 m/s
- viscosity (298.15 K, x1 = 1): 1.99 mPa·s
- speed of sound (303.15 K, x1 = 1): 1472 m/s
- viscosity (303.15 K, x1 = 1): 1.79 mPa·s
- speed of sound (308.15 K, x1 = 1): 1460 m/s
- viscosity (308.15 K, x1 = 1): 1.65 mPa·s

Compound: CC(=O)[O-].CC[NH2+]CC + CS(C)=O
- speed of sound (298.15 K, x1 = 0.0144): 1500 m/s
- viscosity (298.15 K, x1 = 0.0144): 2.24 mPa·s
- speed of sound (298.15 K, x2 = 0): 1608 m/s
- viscosity (298.15 K, x2 = 0): 16.36 mPa·s
- speed of sound (298.15 K, x2 = 0.0253): 1606 m/s
- viscosity (298.15 K, x2 = 0.0253): 16.01 mPa·s
- speed of sound (298.15 K, x2 = 0.0627): 1604 m/s
- viscosity (298.15 K, x2 = 0.0627): 15.5 mPa·s
- speed of sound (298.15 K, x2 = 0.1132): 1601 m/s
- viscosity (298.15 K, x2 = 0.1132): 14.83 mPa·s
- speed of sound (298.15 K, x2 = 0.1535): 1599 m/s
- viscosity (298.15 K, x2 = 0.1535): 14.29 mPa·s
- speed of sound (298.15 K, x2 = 0.2458): 1597 m/s
- viscosity (298.15 K, x2 = 0.2458): 13.11 mPa·s
- speed of sound (298.15 K, x2 = 0.3244): 1596 m/s
- viscosity (298.15 K, x2 = 0.3244): 12.13 mPa·s
- speed of sound (298.15 K, x2 = 0.3701): 1595 m/s
- viscosity (298.15 K, x2 = 0.3701): 11.56 mPa·s
- speed of sound (298.15 K, x2 = 0.4864): 1593 m/s
- viscosity (298.15 K, x2 = 0.4864): 10.09 mPa·s
- speed of sound (298.15 K, x2 = 0.7253): 1572 m/s
- viscosity (298.15 K, x2 = 0.7253): 6.74 mPa·s
- speed of sound (298.15 K, x2 = 0.8406): 1546 m/s
- viscosity (298.15 K, x2 = 0.8406): 4.91 mPa·s
- speed of sound (298.15 K, x2 = 0.8923): 1532 m/s
- viscosity (298.15 K, x2 = 0.8923): 3.98 mPa·s
- speed of sound (298.15 K, x2 = 0.9248): 1522 m/s
- viscosity (298.15 K, x2 = 0.9248): 3.39 mPa·s
- speed of sound (298.15 K, x2 = 0.956): 1513 m/s
- viscosity (298.15 K, x2 = 0.956): 2.81 mPa·s
- speed of sound (303.15 K, x1 = 0.0144): 1478 m/s
- viscosity (303.15 K, x1 = 0.0144): 2.04 mPa·s
- speed of sound (303.15 K, x2 = 0): 1604 m/s
- viscosity (303.15 K, x2 = 0): 13.64 mPa·s
- speed of sound (303.15 K, x2 = 0.0627): 1599 m/s
- viscosity (303.15 K, x2 = 0.0627): 12.96 mPa·s
- speed of sound (303.15 K, x2 = 0.1132): 1597 m/s
- viscosity (303.15 K, x2 = 0.1132): 12.44 mPa·s
- speed of sound (303.15 K, x2 = 0.1535): 1595 m/s
- viscosity (303.15 K, x2 = 0.1535): 12.02 mPa·s
- speed of sound (303.15 K, x2 = 0.2023): 1594 m/s
- viscosity (303.15 K, x2 = 0.2023): 11.54 mPa·s
- speed of sound (303.15 K, x2 = 0.2458): 1593 m/s
- viscosity (303.15 K, x2 = 0.2458): 11.1 mPa·s
- speed of sound (303.15 K, x2 = 0.2814): 1592 m/s
- viscosity (303.15 K, x2 = 0.2814): 10.73 mPa·s
- speed of sound (303.15 K, x2 = 0.3244): 1591 m/s
- viscosity (303.15 K, x2 = 0.3244): 10.28 mPa·s
- speed of sound (303.15 K, x2 = 0.3701): 1590 m/s
- viscosity (303.15 K, x2 = 0.3701): 9.82 mPa·s
- speed of sound (303.15 K, x2 = 0.4864): 1582 m/s
- viscosity (303.15 K, x2 = 0.4864): 8.64 mPa·s
- speed of sound (303.15 K, x2 = 0.5897): 1572 m/s
- viscosity (303.15 K, x2 = 0.5897): 7.51 mPa·s
- speed of sound (303.15 K, x2 = 0.66): 1564 m/s
- viscosity (303.15 K, x2 = 0.66): 6.72 mPa·s
- speed of sound (303.15 K, x2 = 0.7851): 1540 m/s
- viscosity (303.15 K, x2 = 0.7851): 5.17 mPa·s
- speed of sound (303.15 K, x2 = 0.8923): 1512 m/s
- viscosity (303.15 K, x2 = 0.8923): 3.67 mPa·s
- speed of sound (303.15 K, x2 = 0.956): 1491 m/s
- viscosity (303.15 K, x2 = 0.956): 2.61 mPa·s
- speed of sound (303.15 K, x2 = 0.971): 1485 m/s
- viscosity (303.15 K, x2 = 0.971): 2.32 mPa·s
- speed of sound (308.15 K, x1 = 0.0144): 1469 m/s
- viscosity (308.15 K, x1 = 0.0144): 1.9 mPa·s
- speed of sound (308.15 K, x2 = 0): 1599 m/s
- viscosity (308.15 K, x2 = 0): 11.83 mPa·s
- speed of sound (308.15 K, x2 = 0.0253): 1594 m/s
- viscosity (308.15 K, x2 = 0.0253): 11.6 mPa·s
- speed of sound (308.15 K, x2 = 0.0627): 1594 m/s
- viscosity (308.15 K, x2 = 0.0627): 11.27 mPa·s
- speed of sound (308.15 K, x2 = 0.1132): 1592 m/s
- viscosity (308.15 K, x2 = 0.1132): 10.86 mPa·s
- speed of sound (308.15 K, x2 = 0.2023): 1589 m/s
- viscosity (308.15 K, x2 = 0.2023): 10.14 mPa·s
- speed of sound (308.15 K, x2 = 0.2458): 1588 m/s
- viscosity (308.15 K, x2 = 0.2458): 9.76 mPa·s
- speed of sound (308.15 K, x2 = 0.3244): 1584 m/s
- viscosity (308.15 K, x2 = 0.3244): 9.1 mPa·s
- speed of sound (308.15 K, x2 = 0.3701): 1582 m/s
- viscosity (308.15 K, x2 = 0.3701): 8.7 mPa·s
- speed of sound (308.15 K, x2 = 0.4864): 1574 m/s
- viscosity (308.15 K, x2 = 0.4864): 7.69 mPa·s
- speed of sound (308.15 K, x2 = 0.5897): 1562 m/s
- viscosity (308.15 K, x2 = 0.5897): 6.74 mPa·s
- speed of sound (308.15 K, x2 = 0.66): 1554 m/s
- viscosity (308.15 K, x2 = 0.66): 6.08 mPa·s
- speed of sound (308.15 K, x2 = 0.7253): 1544 m/s
- viscosity (308.15 K, x2 = 0.7253): 5.4 mPa·s
- speed of sound (308.15 K, x2 = 0.7851): 1530 m/s
- viscosity (308.15 K, x2 = 0.7851): 4.77 mPa·s
- speed of sound (308.15 K, x2 = 0.8406): 1516 m/s
- viscosity (308.15 K, x2 = 0.8406): 4.11 mPa·s
- speed of sound (308.15 K, x2 = 0.8923): 1502 m/s
- viscosity (308.15 K, x2 = 0.8923): 3.45 mPa·s
- speed of sound (308.15 K, x2 = 0.9248): 1490 m/s
- viscosity (308.15 K, x2 = 0.9248): 2.95 mPa·s
- speed of sound (308.15 K, x2 = 0.956): 1480 m/s
- viscosity (308.15 K, x2 = 0.956): 2.48 mPa·s
- speed of sound (308.15 K, x2 = 0.971): 1474 m/s
- viscosity (308.15 K, x2 = 0.971): 2.18 mPa·s
